Here are results for three molecules from patent US11472811B2, “Pyrazolotriazolopyrimidine derivatives as A2A receptor antagonist” (BEIGENE, LTD., priority 2018, dated 2022).

Data set [1] can be described thus: Mouse BBB assay. Format: in vivo. Particulars: oral 10 mg/kg; for Brain (ng · g^−1): at 1 h. Here is the method:
Mice were acclimated for 1 week prior to use at 18-30 g body weight. Fasted mice were dosed orally at 10 mg/kg dose. At 1, 2 and 4 hours postdose, plasma samples from cardiac blood collected in tubes containing K2EDTA as the anticoagulant, and excised cerebral hemispheres were immediately frozen and stored at −80° C. until bioanalysis. Total concentrations of the compound were determined by LC-MS/MS. Brain homogenate concentrations were converted to brain concentrations for the calculations of brain-to-plasma ratios.

Data set [2] deals with human adenosine A1 receptor (A1R) (Homo sapiens (Human), UniProt P30542). Briefly: Adenosine receptor binding assay, A1 (radioligand competitive binding). Particulars: membrane homogenates from CHO cells transfected with A1R, 1 nM [3H]DPCPX. Here is the method: (§1) Binding affinity of test compounds to four human adenosine receptors, A1, A2A, A2B and A3 was determined in radioligand competitive binding assay (conducted by Cerep, France) using following protocols. For A1 receptor (A1R), membrane homogenates from CHO cells transfected with A1R were incubated for 60 min at 22° C. with 1 nM [3H]DPCPX in the absence or presence of the test compound in a buffer containing 50 mM Tris-HCl (pH 7.4), 5 mM MgCl2, 1 mM EDTA/Tris and 2 UI/mL ADA. For A2AR, membrane homogenates from HEK293 cells transfected with A2AR were incubated for 120 min at 22° C. with 6 nM [3H]CGS21680 in the absence or presence of the test compound in a buffer containing 50 mM Tris-HCl (pH 7.4), 10 mM MgCl2, and 2 UI/mL ADA. For A2B receptor (A2BR), membrane homogenates from HEK293 cells transfected with A2BR were incubated for 60 min at 22° C. with 5 nM [3H]CPX in the absence or presence of the test compound in a buffer containing 10 mM Hepes/Tris (pH 7), 1 mM MgCl2, and 1 mM EDTA. For A3 receptor (A3R), membrane homogenates from HEK293 cells transfected with A3R were incubated for 120 min at 22° C. with 0.15 nM [125I] AB-MECA in the absence or presence of the test compound in a buffer containing 50 mM Tris-HCl (pH 7.4), 5 mM MgCl2, 1 mM EDTA and 2 UI/mL ADA. Nonspecific binding was determined in the presence of unlabeled 1 μM DPCPX, 10 μM NECA, 100 μM NECA, and 1 μM IB-MECA in A1R, A2AR, A2BR, A3R binding assays, respectively. Following incubation, the samples are rapidly filtered and washed with ice-cold 50 mM Tris-HCl. Then filters are dried and counted for radioactivity in a scintillation counter (Topcount, Packard) using a scintillation cocktail (Microscint 0, Packard). Duplicate experiments were performed for each assay. The results are expressed as a percent inhibition of control radioligand specific binding.

Data set [3] concerns the target human adenosine A2A receptor (A2AR) (Homo sapiens (Human), UniProt P29274). Briefly: Adenosine receptor binding assay, A2A (radioligand competitive binding). Particulars: membrane homogenates from HEK293 cells transfected with A2AR, 6 nM [3H]CGS21680. On the procedure:
as §1

Data set [4] deals with human A2A receptor (A2AR) (Homo sapiens (Human), UniProt P29274). The data set is described as follows: Luciferase reporter assay (HEK293-A2AR-luc2p/CRE/Hygro cells). Format: cell-based. Conditions: 3 nM CGS21680, 5 h incubation. Put shortly:
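HEK293 cells stably expressing human A2AR and a CRE-luc2P reporter were seeded in 1% FBS with 1 U/mL adenosine deaminase. After 18 h they were stimulated 5 h with 3 nM CGS21680 plus compound (0.1–10000 nM), then luciferase luminescence was read. IC50 was taken from inhibition curves, with CGS21680 alone set as 100%.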
Background: A reporter such as luciferase makes a cellular process visible.

The mark [5] stands for this setting: limit of quantitation plasma 1 ng/ml, read-out: Plasma.
Where [6] appears, read: BLOQ: below limit of quantitation, Brain is 5 ng/g.

Where two headings read alike, the source gives them in different places.

human adenosine A2A receptor (A2AR), sequence (P29274 whole entry): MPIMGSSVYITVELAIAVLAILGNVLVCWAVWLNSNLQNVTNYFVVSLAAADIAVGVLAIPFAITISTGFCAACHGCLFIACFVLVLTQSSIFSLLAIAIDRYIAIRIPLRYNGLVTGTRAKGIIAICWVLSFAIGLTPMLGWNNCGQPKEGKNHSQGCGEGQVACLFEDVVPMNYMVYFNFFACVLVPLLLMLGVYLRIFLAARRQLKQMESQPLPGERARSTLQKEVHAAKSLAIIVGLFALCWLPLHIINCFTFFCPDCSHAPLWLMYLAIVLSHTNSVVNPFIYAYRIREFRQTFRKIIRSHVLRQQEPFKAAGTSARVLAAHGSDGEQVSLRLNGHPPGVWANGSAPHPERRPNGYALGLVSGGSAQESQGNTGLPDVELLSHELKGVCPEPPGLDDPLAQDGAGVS
human A2A receptor (A2AR), sequence (P29274 whole entry): as above
human adenosine A1 receptor (A1R), sequence (P30542 whole entry): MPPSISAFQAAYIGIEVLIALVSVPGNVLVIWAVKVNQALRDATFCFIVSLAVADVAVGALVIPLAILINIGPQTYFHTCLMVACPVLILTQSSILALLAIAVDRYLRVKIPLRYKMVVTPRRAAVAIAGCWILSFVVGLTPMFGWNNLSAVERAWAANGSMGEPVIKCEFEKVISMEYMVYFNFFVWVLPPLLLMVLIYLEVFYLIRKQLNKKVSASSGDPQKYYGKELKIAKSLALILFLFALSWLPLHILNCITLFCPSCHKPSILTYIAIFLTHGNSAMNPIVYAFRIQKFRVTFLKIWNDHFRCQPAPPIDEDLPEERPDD

For orientation: Ki means the dissociation constant of the complex between target and ligand, obtained from inhibition or displacement. Low readings indicate tighter binding, high ones weaker binding. One may read the IC50 as the midpoint of a concentration-inhibition curve. Read a high IC50 as weaker potency in that assay. Take `C[C@](C(=O)N[C@@H]1CCC[C@@H]1O)(c1ccccc1)n1ncc2c1nc(N)n1nc(-c3ccco3)nc21` [Example 48B, (R)-2-(5-amino-2-(furan-2-yl)-7H-pyrazolo[4,3-e][1,2,4]triazolo[1,5-c]pyrimidin-7-yl)-N-((1R,2S)-2-hydroxycyclopentyl)-2-phenylpropanamide]: the concentration at 1 h in data set [1] (BLOQ: below limit of quantitation, Brain is 5 ng/g, read-out: Brain) came to 8.69 ng/g; in data set [1] (setting [5]), 56.3 ng/mL. Moreover, the Ki in data set [2] was determined as 12 nM; in data set [3] it was 2.2 nM. For the same molecule, the IC50 in data set [4] is 1.6 nM.

In the case of `C[C@](C(=O)NCC1(O)COC1)(c1ccccc1)n1ncc2c1nc(N)n1nc(-c3ccco3)nc21` [Example 31B, (R)-2-(5-amino-2-(furan-2-yl)-7H-pyrazolo[4,3-e][1,2,4]triazolo[1,5-c]pyrimidin-7-yl)-N-((3-hydroxyoxetan-3-yl)methyl)-2-phenylpropanamide], in data set [1] (setting [6]), the “Brain (ng · g^−1)” value is reported as “BLOQ”. Further, the concentration at 1 h in data set [1] (setting [5]) was 177 ng/mL. Besides, the results for the Ki in data set [2] and in data set [3] were 180 nM and 1.2 nM, respectively. Further, the IC50 in data set [4] was 2.3 nM.

Turning to `C[C@](C(=O)N[C@H]1CC[C@@H](O)CC1)(c1ccccc1)n1ncc2c1nc(N)n1nc(-c3ccco3)nc21` [Example 76B, (R)-2-(5-amino-2-(furan-2-yl)-7H-pyrazolo[4,3-e][1,2,4]triazolo[1,5-c]pyrimidin-7-yl)-(cis)-N-(4-hydroxycyclohexyl)-2-phenylpropanamide], the “Brain (ng · g^−1)” value in data set [1] (setting [6]) is on record as “BLOQ”. Further, the concentration at 1 h in data set [1] (setting [5]) was found to be 39.1 ng/mL. The Ki was 150 nM in data set [2] and 1.6 nM in data set [3]. In addition, the IC50 in data set [4] was determined as 2.2 nM.
